# Article PMC7948422, “Repurposing p97 inhibitors for chemical modulation of the bacterial ClpB–DnaK bichaperone system” (The Journal of Biological Chemistry, 2020)
# Entries after “also recorded” stand apart in the source; their conditions may differ.
# What was measured:
# [1] = target: T1, wt ClpB (Escherichia coli, UniProt P63284); test: Surface plasmon resonance, immobilized wt ClpB; assay type: binding; settings: SPR, preliminary; read-out: dissociation constant, control titration of immobilized ClpB
# T1 construct: made in house
# Experimental: ClpB, DnaK, and the NBD of DnaK were extensively dialyzed against the SPR buffer (20-mM Hepes, pH 7.4, 150-mM NaCl, 20-mM MgCl2, 1-mM EDTA, 1-mM DTT). After dialysis, the protein concentration was determined by the Bradford method. The DBeQ–protein interactions were studied using a Biacore T200 instrument (GE Healthcare) at 25 °C. The proteins were diluted to 300 μg/ml in 10-mM sodium acetate buffer (pH 5 for ClpB DnaK or pH 4 for NBD) and immobilized on HC1500M sensor chips (Xantec) by standard amine coupling chemistry as described previously ([70]). A reference flow cell was created by ethyl(dimethylaminopropyl) carbodiimide/N-hydroxysuccinimide activation followed by quenching with 1 M ethanolamine (pH 9.0). Solvent correction curves were obtained at the beginning and end and after every 50 injection cycles by injecting varying DMSO concentrations (4.0, 4.4, 4.6, 4.8, 5.0, 5.2, 5.4, and 5.9% [v/v]). All experiments were performed using a flow rate of 30 μl/min.
# Binding isotherms were obtained with the ligand diluted to different concentrations in the SPR running buffer HBSMTD (20-mM Hepes, pH 7.4, 140-mM NaCl, 20-mM MgCl2, 5% (v/v) DMSO, 0.005% (v/v) Tween-20). Replicate injections were performed for all samples, and a buffer-only injection was performed for every 12 injection cycles. To test the structural integrity of ClpB after immobilization on the sensor chips, we performed control titrations with ATPγS and adenosine. The dissociation constants determined from those experiments were ∼20 μM for ATPγS and ∼2 mM for adenosine. […] Moreover, the immobilized ClpB discriminated between a nucleotide analog and a nucleoside, which indicated an adequate structural integrity of ClpB on the sensor chips.
# The resulting sensorgrams were analyzed using Biacore T200 Evaluation Software v3.0 according to the following procedure. Solvent correction curves were generated and applied to all data sets, and all sensorgrams were double-referenced by subtracting the most recent buffer blank injection. The signal immediately before injection stop of these corrected sensorgrams was treated as the binding response. GraphPad Prism was used for nonlinear least-squares fitting of the model assuming either noncooperative or cooperative binding of DBeQ to DnaK and ClpB, respectively.
# [2] = target: monomeric ClpB; set-up: method as in PMID 10982797; settings: read-out: Kd of monomeric ClpB toward ATP; cited from earlier work
# [3] = target: T2, E. coli ClpB (Escherichia coli, UniProt P63284); assay type: biochemical; settings: 100 μM compound, 37 °C; for inhibition of the basal ClpB ATPase: no casein; for inhibition of the ClpB ATPase in the presence of casein: with κ-casein
# T2 construct: made in house
# Experimental: To determine the ATPase activity, ClpB was diluted to 28 μg/ml (49-nM hexamer) in buffer C (50-mM Tris-HCl, pH 7.4, 20-mM MgCl2, 1-mM EDTA, 0.5-mM tris(2-carboxyethyl)phosphine [TCEP]). In some experiments, the ClpB solution was supplemented with 17.4 μg/ml (10 μM) κ-casein. The ClpB aliquots (18 μl) were mixed with 1 μl of the investigated compounds at different concentrations in 100% DMSO or with DMSO as a control. A sample without ClpB was used as a baseline control. After a 10-min preincubation at 37 or 45 °C, the ATP hydrolysis reaction was initiated by adding 1 μl of 100-mM ATP. The samples were incubated for 60 min (basal ClpB activity in the absence of κ-casein) or 15 min (in the presence of κ-casein) at 37 °C or 30 min at 45 °C in the absence of casein. For the E678Q ClpB variant, the incubation time in the presence of κ-casein was 60 min. After incubation, 15 μl of each sample was mixed with 200 μl of the ammonium molybdate/malachite green reagent ([67]) dispensed into a 96-well plate, followed by an addition of 30 μl of 34% sodium citrate ([68]). The plate was agitated inside a Synergy H1 reader (BioTek, Winooski, VT) for 15 min at room temperature, and the samples’ absorbance was measured at 630 nm. The readouts for ClpB-containing samples were corrected for absorbance of samples without ClpB, to account for nonenzymatic production of inorganic phosphate. A standard curve obtained with different inorganic phosphate concentrations was used to determine the amount of phosphate produced from ATP in the presence of ClpB.
# [4] = test system: p97; set-up: method as in PMID 25685910; settings: cited from earlier work
# T2 sequence (P63284 whole entry): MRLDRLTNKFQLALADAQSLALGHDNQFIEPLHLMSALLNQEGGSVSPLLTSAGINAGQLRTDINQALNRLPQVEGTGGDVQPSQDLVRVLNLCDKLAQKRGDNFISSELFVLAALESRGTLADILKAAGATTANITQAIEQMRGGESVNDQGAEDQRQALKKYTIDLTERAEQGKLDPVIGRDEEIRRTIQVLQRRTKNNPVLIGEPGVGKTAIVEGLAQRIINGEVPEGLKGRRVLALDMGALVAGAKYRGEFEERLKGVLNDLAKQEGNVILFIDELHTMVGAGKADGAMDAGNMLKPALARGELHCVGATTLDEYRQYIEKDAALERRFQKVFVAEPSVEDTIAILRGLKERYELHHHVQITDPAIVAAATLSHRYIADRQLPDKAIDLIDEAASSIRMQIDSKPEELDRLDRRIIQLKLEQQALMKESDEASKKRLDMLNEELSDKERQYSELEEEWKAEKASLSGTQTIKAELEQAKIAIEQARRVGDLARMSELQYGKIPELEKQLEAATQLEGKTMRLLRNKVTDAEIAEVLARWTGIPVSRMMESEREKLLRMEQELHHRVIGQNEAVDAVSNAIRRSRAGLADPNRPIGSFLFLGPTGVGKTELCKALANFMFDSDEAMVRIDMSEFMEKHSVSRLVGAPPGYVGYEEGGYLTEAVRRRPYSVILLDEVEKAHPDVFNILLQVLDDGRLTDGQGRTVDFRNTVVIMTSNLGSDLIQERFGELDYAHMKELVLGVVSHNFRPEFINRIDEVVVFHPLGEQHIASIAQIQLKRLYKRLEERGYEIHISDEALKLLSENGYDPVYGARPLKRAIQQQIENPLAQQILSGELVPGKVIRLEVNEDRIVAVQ
# T1 sequence (P63284 whole entry): as above
SMILES,Kd [1] [µM],Kd [2] [µM],inhibition of the basal ClpB ATPase [3],inhibition of the ClpB ATPase in the presence of casein [3],IC50 [4] [µM]
Nc1ncnc2c1ncn2[C@@H]1O[C@H](CO[P@](=O)(O)O[P@](=O)(O)O[P@@](=O)(O)S)[C@@H](O)[C@H]1O [ATPγS],~20,,,,
Nc1ncnc2c1ncn2[C@@H]1O[C@H](COP(=O)(O)OP(=O)(O)OP(=O)(O)O)[C@@H](O)[C@H]1O [ATP],,> 1000,,,
Cc1cc(OCc2nnc(SC3CCCC3)n2-c2cccnc2)ccc1-c1ccc(S(C)(=O)=O)cc1 [NMS-873],,,"None of the above compounds, except C3, showed a significant inhibition",only C3 and DBeQ strongly inhibited,~0.02
Nc1ncnc2c1ncn2[C@@H]1O[C@H](CO)[C@@H](O)[C@H]1O [adenosine],~2000,,,,
COc1cccc2c(NCc3ccccc3)nc(-n3c(N)nc4ccccc43)nc12 [ML240],,,"None of the above compounds, except C3, showed a significant inhibition",loss of potency toward ClpB; also recorded: only C3 and DBeQ strongly inhibited,~0.1
